# Laboratory results taken from PubChem BioAssay (NCI).
#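 96-well plates; 48 h exposure; 5 concentrations. Endpoints by linear interpolation between flanking doses. Not reached: highest tested concentration assigned. GI50: concentration for 50% inhibition of growth. Definition used: TGI = concentration required for complete inhibition of growth.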
# How the values were obtained:
# Experiment in all cases: inhibition of tumour cell growth, NCI panel, 48 h
# ACHN renal = system: ACHN renal
# HOP-92 NSCLC = system: HOP-92 NSCLC
# HL-60(TB) leukemia = system: HL-60(TB) leukemia
# A498 renal = system: A498 renal
# RXF 393 renal = system: RXF 393 renal
# COLO 205 colon = system: COLO 205 colon
# SNB-19 CNS = system: SNB-19 CNS
# MDA-MB-231 breast = system: MDA-MB-231 breast
# CAKI-1 renal = system: CAKI-1 renal
# HS 578T breast = system: HS 578T breast
# IGROV1 ovarian = system: IGROV1 ovarian
# SR leukemia = system: SR leukemia
# OVCAR-3 ovarian = system: OVCAR-3 ovarian
# SK-OV-3 ovarian = system: SK-OV-3 ovarian
# SK-MEL-5 melanoma = system: SK-MEL-5 melanoma
# TK-10 renal = system: TK-10 renal
# 786-0 renal = system: 786-0 renal
# SK-MEL-2 melanoma = system: SK-MEL-2 melanoma
# OVCAR-4 ovarian = system: OVCAR-4 ovarian
# UO-31 renal = system: UO-31 renal
# SF-295 CNS = system: SF-295 CNS
# SK-MEL-28 melanoma = system: SK-MEL-28 melanoma
# NCI-H23 lung = system: NCI-H23 lung
# MCF7 breast = system: MCF7 breast
# MOLT-4 leukemia = system: MOLT-4 leukemia
# HT29 colon = system: HT29 colon
# NCI-H522 lung = system: NCI-H522 lung
# HCT-15 colon = system: HCT-15 colon
# MDA-MB-435 = system: MDA-MB-435
# DU-145 prostate = system: DU-145 prostate
# MALME-3M melanoma = system: MALME-3M melanoma
# U251 CNS = system: U251 CNS
# HOP-62 NSCLC = system: HOP-62 NSCLC
# OVCAR-8 ovarian = system: OVCAR-8 ovarian
# A549 NSCLC = system: A549 NSCLC
# RPMI-8226 leukemia = system: RPMI-8226 leukemia
# UACC-257 melanoma = system: UACC-257 melanoma
# NCI-H460 lung = system: NCI-H460 lung
# SF-268 CNS = system: SF-268 CNS
# EKVX NSCLC = system: EKVX NSCLC
# NCI-H226 lung = system: NCI-H226 lung
# BT-549 breast = system: BT-549 breast
# OVCAR-5 ovarian = system: OVCAR-5 ovarian
# KM12 colon = system: KM12 colon
# SN12C renal = system: SN12C renal
# PC-3 prostate = system: PC-3 prostate
# M14 melanoma = system: M14 melanoma
# HCT-116 colon = system: HCT-116 colon
# T-47D breast = system: T-47D breast
# HCC-2998 colon = system: HCC-2998 colon
# NCI/ADR-RES ovarian = system: NCI/ADR-RES ovarian
# CCRF-CEM leukemia = system: CCRF-CEM leukemia
# SF-539 CNS = system: SF-539 CNS
# K-562 leukemia = system: K-562 leukemia
# SW-620 colon = system: SW-620 colon
# UACC-62 melanoma = system: UACC-62 melanoma
# SNB-75 CNS = system: SNB-75 CNS
compound,measurement,setting,value
O=C(Nc1ccc(Cl)cc1)c1cc(S(=O)(=O)Nc2nnc3c(Cl)cc(C(F)(F)F)cn23)c(S)cc1Cl,TGI,ACHN renal,> 100000 nM
same,TGI,HOP-92 NSCLC,> 100000 nM
same,TGI,HL-60(TB) leukemia,> 100000 nM
same,TGI,A498 renal,86300 nM
same,TGI,RXF 393 renal,> 100000 nM
same,TGI,COLO 205 colon,> 100000 nM
same,TGI,SNB-19 CNS,> 100000 nM
same,TGI,MDA-MB-231 breast,> 100000 nM
same,TGI,CAKI-1 renal,> 100000 nM
same,TGI,HS 578T breast,> 100000 nM
same,TGI,IGROV1 ovarian,> 100000 nM
same,TGI,SR leukemia,> 100000 nM
same,TGI,OVCAR-3 ovarian,> 100000 nM
same,TGI,SK-OV-3 ovarian,> 100000 nM
same,TGI,SK-MEL-5 melanoma,> 100000 nM
same,TGI,TK-10 renal,> 100000 nM
same,TGI,786-0 renal,> 100000 nM
same,TGI,SK-MEL-2 melanoma,74600 nM
same,TGI,OVCAR-4 ovarian,> 100000 nM
same,TGI,UO-31 renal,> 100000 nM
same,TGI,SF-295 CNS,> 100000 nM
same,TGI,SK-MEL-28 melanoma,> 100000 nM
same,TGI,NCI-H23 lung,> 100000 nM
same,TGI,MCF7 breast,> 100000 nM
same,TGI,MOLT-4 leukemia,> 100000 nM
same,TGI,HT29 colon,> 100000 nM
same,TGI,NCI-H522 lung,> 100000 nM
same,TGI,HCT-15 colon,> 100000 nM
same,TGI,MDA-MB-435,> 100000 nM
same,TGI,DU-145 prostate,> 100000 nM
same,TGI,MALME-3M melanoma,> 100000 nM
same,TGI,U251 CNS,> 100000 nM
same,TGI,HOP-62 NSCLC,> 100000 nM
same,TGI,OVCAR-8 ovarian,> 100000 nM
same,TGI,A549 NSCLC,> 100000 nM
same,TGI,RPMI-8226 leukemia,> 100000 nM
same,TGI,UACC-257 melanoma,> 100000 nM
same,TGI,NCI-H460 lung,> 100000 nM
same,TGI,SF-268 CNS,> 100000 nM
same,TGI,EKVX NSCLC,> 100000 nM
same,TGI,NCI-H226 lung,> 100000 nM
same,TGI,BT-549 breast,> 100000 nM
same,TGI,OVCAR-5 ovarian,> 100000 nM
same,TGI,KM12 colon,> 100000 nM
same,TGI,SN12C renal,> 100000 nM
same,TGI,PC-3 prostate,> 100000 nM
same,TGI,M14 melanoma,> 100000 nM
same,TGI,HCT-116 colon,> 100000 nM
same,TGI,T-47D breast,> 100000 nM
same,TGI,HCC-2998 colon,> 100000 nM
same,TGI,NCI/ADR-RES ovarian,> 100000 nM
same,TGI,CCRF-CEM leukemia,> 100000 nM
same,TGI,SF-539 CNS,> 100000 nM
same,TGI,K-562 leukemia,> 100000 nM
O=C1c2ccc3c4c(ccc(c24)C(=O)N1CCCNCc1ccccc1Cl)C(=O)N(CCCNCc1ccccc1Cl)C3=O,GI50,ACHN renal,206 nM
same,TGI,ACHN renal,859 nM
same,GI50,HOP-92 NSCLC,728 nM
same,TGI,HOP-92 NSCLC,2370 nM
same,GI50,HL-60(TB) leukemia,904 nM
same,TGI,HL-60(TB) leukemia,2110 nM
same,GI50,A498 renal,712 nM
same,TGI,A498 renal,1430 nM
same,GI50,RXF 393 renal,121 nM
same,TGI,RXF 393 renal,366 nM
same,GI50,SW-620 colon,128 nM
same,TGI,SW-620 colon,361 nM
same,GI50,COLO 205 colon,89.6 nM
same,TGI,COLO 205 colon,166 nM
same,GI50,SNB-19 CNS,314 nM
same,TGI,SNB-19 CNS,987 nM
same,GI50,MDA-MB-231 breast,250 nM
same,TGI,MDA-MB-231 breast,2200 nM
same,GI50,CAKI-1 renal,317 nM
same,TGI,CAKI-1 renal,1460 nM
same,GI50,HS 578T breast,984 nM
same,TGI,HS 578T breast,11900 nM
same,GI50,IGROV1 ovarian,275 nM
same,TGI,IGROV1 ovarian,1630 nM
same,GI50,SR leukemia,151 nM
same,TGI,SR leukemia,6680 nM
same,GI50,OVCAR-3 ovarian,132 nM
same,TGI,OVCAR-3 ovarian,345 nM
same,GI50,SK-OV-3 ovarian,862 nM
same,TGI,SK-OV-3 ovarian,3180 nM
same,GI50,SK-MEL-5 melanoma,399 nM
same,TGI,SK-MEL-5 melanoma,1020 nM
same,GI50,TK-10 renal,179 nM
same,TGI,TK-10 renal,724 nM
same,GI50,786-0 renal,610 nM
same,TGI,786-0 renal,1430 nM
same,GI50,SK-MEL-2 melanoma,415 nM
same,TGI,SK-MEL-2 melanoma,1280 nM
same,GI50,OVCAR-4 ovarian,89.1 nM
same,TGI,OVCAR-4 ovarian,182 nM
same,GI50,SF-295 CNS,494 nM
same,TGI,SF-295 CNS,1220 nM
same,GI50,SK-MEL-28 melanoma,776 nM
same,TGI,SK-MEL-28 melanoma,1480 nM
same,GI50,NCI-H23 lung,217 nM
same,TGI,NCI-H23 lung,860 nM
same,GI50,MCF7 breast,100 nM
same,TGI,MCF7 breast,231 nM
same,GI50,MOLT-4 leukemia,168 nM
same,TGI,MOLT-4 leukemia,722 nM
same,GI50,HT29 colon,123 nM
same,TGI,HT29 colon,335 nM
same,GI50,UACC-62 melanoma,671 nM
same,TGI,UACC-62 melanoma,1430 nM
same,GI50,NCI-H522 lung,293 nM
same,TGI,NCI-H522 lung,974 nM
same,GI50,HCT-15 colon,148 nM
same,TGI,HCT-15 colon,620 nM
same,GI50,MDA-MB-435,120 nM
same,TGI,MDA-MB-435,332 nM
same,GI50,DU-145 prostate,261 nM
same,TGI,DU-145 prostate,860 nM
same,GI50,MALME-3M melanoma,315 nM
same,TGI,MALME-3M melanoma,1050 nM
same,GI50,U251 CNS,218 nM
same,TGI,U251 CNS,910 nM
same,GI50,HOP-62 NSCLC,277 nM
same,TGI,HOP-62 NSCLC,1020 nM
same,GI50,OVCAR-8 ovarian,148 nM
same,TGI,OVCAR-8 ovarian,533 nM
same,GI50,A549 NSCLC,230 nM
same,TGI,A549 NSCLC,833 nM
same,GI50,RPMI-8226 leukemia,390 nM
same,TGI,RPMI-8226 leukemia,1860 nM
same,GI50,UACC-257 melanoma,125 nM
same,TGI,UACC-257 melanoma,334 nM
same,GI50,NCI-H460 lung,212 nM
same,TGI,NCI-H460 lung,817 nM
same,GI50,SF-268 CNS,477 nM
same,TGI,SF-268 CNS,1490 nM
same,GI50,EKVX NSCLC,481 nM
same,TGI,EKVX NSCLC,1160 nM
same,GI50,NCI-H226 lung,659 nM
same,TGI,NCI-H226 lung,1490 nM
same,GI50,BT-549 breast,870 nM
same,TGI,BT-549 breast,1800 nM
same,GI50,OVCAR-5 ovarian,592 nM
same,TGI,OVCAR-5 ovarian,1670 nM
same,GI50,KM12 colon,170 nM
same,TGI,KM12 colon,637 nM
same,GI50,SN12C renal,99.5 nM
same,TGI,SN12C renal,206 nM
same,GI50,PC-3 prostate,268 nM
same,TGI,PC-3 prostate,1560 nM
same,GI50,M14 melanoma,200 nM
same,TGI,M14 melanoma,685 nM
same,GI50,HCT-116 colon,126 nM
same,TGI,HCT-116 colon,344 nM
same,GI50,T-47D breast,787 nM
same,TGI,T-47D breast,2170 nM
same,GI50,HCC-2998 colon,191 nM
same,TGI,HCC-2998 colon,651 nM
same,GI50,SNB-75 CNS,716 nM
same,TGI,SNB-75 CNS,1470 nM
same,GI50,NCI/ADR-RES ovarian,142 nM
same,TGI,NCI/ADR-RES ovarian,456 nM
same,GI50,CCRF-CEM leukemia,215 nM
same,TGI,CCRF-CEM leukemia,50000 nM
same,GI50,SF-539 CNS,669 nM
same,TGI,SF-539 CNS,1380 nM
same,GI50,K-562 leukemia,183 nM
same,TGI,K-562 leukemia,1120 nM
